The source made the active and inactive calls. The calls are words filed in the database; no cut-off is given here. Residues, ends and D or L forms follow the SMILES beside them. *: point of attachment. NHBn = c1ccc(CN*)cc1; ClAc = O=C(CCl)*
How the values were obtained:
[1] = Stability in simulated gastric fluid assessed as parent compound remaining incubated upto 120 mins by LC-MS analysis; type: ADME; conditions: read-out: Stability
[2] = Half life in human plasma at 10 uM measured upto 180 mins by LC-MS analysis; type: ADME, cell-free
[3] = Metabolic stability in human liver microsomes assessed as intrinsic clearance incubated upto 60 mins in presence of NADPH by LC-MS analysis; type: ADME, Microsome; conditions: read-out: CLH
[4] = Metabolic stability in human liver microsomes assessed as half life incubated upto 60 mins in presence of NADPH by LC-MS analysis; type: ADME, Microsome
[5] = Stability in simulated intestinal fluid assessed as parent compound remaining incubated upto 120 mins by LC-MS analysis; type: ADME; conditions: read-out: Stability
[6] = Cytotoxicity against African green monkey Vero cells assessed as change in cell morphology by measuring minimum cytotoxic concentration by microscopic analysis; type: toxicity, cell-based; conditions: chlorocebus sabaeus
[7] = Metabolic stability in human liver microsomes assessed as half life incubated upto 60 mins in presence of NADPH and UDPGA by LC-MS analysis; type: ADME, Microsome
[8] = test system: Human coronavirus 229E; type: functional, organism-based
[9] = test system: SARS-CoV-2; assay: microbe, parasite or virus in culture; conditions: Severe acute respiratory syndrome coronavirus 2, Omicron B1.1.529, Vero
Description: Antiviral activity against SARS-CoV-2 Omicron B1.1.529 infected in African green monkey Vero cells assessed as reduction in virus-induced cytopathic effect incubated for 6 to 7 days by microscopic analysis

[10] = target: Replicase polyprotein 1ab (Severe acute respiratory syndrome coronavirus 2, UniProt P0DTD1); assay: Inhibition of recombinant SARS-CoV-2 main protease using DABCYL-KTSAVLQSGFRKME-EDANS as fluorescent substrate preincubated for 30 mins followed by substrate addition by FRET assay
[11] = test system: SARS-CoV-2; assay: microbe, parasite or virus in culture; conditions: Severe acute respiratory syndrome coronavirus 2, NVDBB-2220 (Alpha), Vero
Description: Antiviral activity against SARS-CoV-2 NVDBB-2220 (Alpha) infected in African green monkey Vero cells assessed as reduction in virus-induced cytopathic effect incubated for 6 to 7 days by microscopic analysis

[12] = test system: SARS-CoV-2; assay: microbe, parasite or virus in culture; conditions: Severe acute respiratory syndrome coronavirus 2, Wuhan/WIV04/2020, Vero
Description: Antiviral activity against SARS-CoV-2 Wuhan/WIV04/2020 infected in African green monkey Vero cells assessed as reduction in virus-induced cytopathic effect incubated for 6 to 7 days by microscopic analysis

[13] = test system: SARS-CoV-2; assay: microbe, parasite or virus in culture; conditions: Severe acute respiratory syndrome coronavirus 2, 860-J1 (Delta), Vero
Description: Antiviral activity against SARS-CoV-2 860-J1 (Delta) infected in African green monkey Vero cells assessed as reduction in virus-induced cytopathic effect incubated for 6 to 7 days by microscopic analysis

[14] = test system: Human coronavirus OC43; type: functional, organism-based

| SMILES | remaining at 2 h [1] | half-life at 10 µM [2] | CLint scaled [3] | half-life [4] | remaining at 2 h [5] | MCC [6] | half-life [7] | Activity [8] | EC50 [9] | IC50 [10] | EC50 [11] | EC50 [12] | EC50 [13] | Activity [14] |
| --- | --- | --- | --- | --- | --- | --- | --- | --- | --- | --- | --- | --- | --- | --- |
| CC(C)C[C@@H](NC(=O)CCl)C(=O)N[C@@H](Cc1c[nH]c2ccccc12)C(=O)NCc1ccccc1 | > 80% | 3.87 h | < 45 mL/min/kg | 1.24 h | > 80% | > 100 µM | 1.25 h | Active | 1.37 µM | > 30 µM | 0.57 µM | 0.08 µM | 1.08 µM | Active |
| C=CC[C@H](NC(=O)CCl)C(=O)N[C@@H](CC=C)C(=O)N[C@H](CNCc1ccccc1)Cc1c[nH]c2ccccc12 |  |  |  |  |  | > 100 µM |  | Active | 15.2 µM | > 30 µM | 2.53 µM | 4.29 µM | 18.1 µM | Active |
| O=C(CCl)NCC(=O)N[C@@H](Cc1c[nH]c2ccccc12)C(=O)NCc1ccccc1 (ClAc-Gly-Trp-NHBn) | > 80% |  | < 15 mL/min/kg | 5.78 h | > 80% | > 100 µM | 2.03 h | Active | 0.81 µM | > 30 µM | 0.3 µM | 0.16 µM | 0.54 µM | Active |
| CC(C)C[C@H](NC(=O)CCl)C(=O)N[C@@H](Cc1c[nH]c2ccccc12)C(=O)NCc1ccccc1 | > 80% |  | > 45 mL/min/kg | 0.495 h | > 80% | > 100 µM | 0.352 h | Active | 1.28 µM | 2.81 µM | 0.32 µM | 0.27 µM | 1.2 µM | Active |
| COC(=O)[C@H](CC(C)C)NC(=O)[C@H](Cc1c[nH]c2ccccc12)NC(=O)CCl (ClAc-Trp-Leu-OMe) |  |  |  |  |  | 21 µM |  | Active | > 4 µM | > 30 µM | > 20 µM | > 4 µM | > 20 µM | Active |
| CC(C)C[C@H](NC(=O)[C@H](Cc1c[nH]c2ccccc12)NC(=O)CCl)C(=O)NCc1ccccc1 (ClAc-Trp-Leu-NHBn) | > 80% | 0.407 h |  |  | > 80% | 20 µM |  | Active | 0.4 µM | 8.32 µM | 0.41 µM | 0.25 µM | 1.25 µM | Active |
| CC(C)C[C@@H](C(=O)NCC12CC3CC(CC(C3)C1)C2)N(Cc1ccccc1)C(=O)CCl |  |  |  |  |  | 19 µM |  | Active | > 4 µM | > 30 µM | > 4 µM | > 4 µM | > 4 µM | Active |
| O=C(CS)N[C@@H](Cc1ccccc1)C(=O)N[C@@H](Cc1c[nH]c2ccccc12)C(=O)NCc1ccccc1 |  |  |  |  |  | > 100 µM |  | Active | > 100 µM | > 30 µM | > 100 µM | > 100 µM | > 100 µM | Active |
| CC(C)C(=O)OC[C@H]1O[C@@H](n2ccc(NO)nc2=O)[C@H](O)[C@@H]1O [MOLNUPIRAVIR] |  |  |  |  |  | > 100 µM |  |  | 1.22 µM |  | 5.44 µM | 4.31 µM | 6.04 µM |  |
| COC(=O)[C@H](CCC(N)=O)NC(=O)[C@H](Cc1c[nH]c2ccccc12)NC(=O)[C@H](CC(C)C)NC(=O)CCl (ClAc-Leu-Trp-Gln-OMe) |  |  |  |  |  | > 100 µM |  | Active | > 100 µM | > 30 µM | > 100 µM | > 100 µM | > 100 µM | Active |
| C=CC(=O)N[C@@H](CC(C)C)C(=O)N[C@@H](Cc1c[nH]c2ccccc12)C(=O)NCc1ccccc1 |  |  |  |  |  | > 100 µM |  | Active | > 100 µM | > 30 µM | > 100 µM | > 100 µM | > 100 µM | Active |

From ChEMBL document CHEMBL5543078, “Peptidomimetics as potent dual SARS-CoV-2 cathepsin-L and main protease inhibitors: In silico design, synthesis and pharmacological characterization” (Eur J Med Chem, 2024)
